ChEMBL document CHEMBL4765341, “A series of octahydroquinazoline-5-ones as novel inhibitors against dengue virus” (Eur J Med Chem, 2020)
Active and inactive are the calls of the source. The rule behind the calls is not given here.

Key:
[1] = tested on: dengue virus type 2; test: Antiviral activity against DENV-2 infected in BHK-21 cells assessed as cytopathic effect after 96 hrs by LDH assay; type: functional, organism-based; conditions: for EC50: BHK-21, 96 h
[2] = Cytotoxicity against golden hamster BHK-21 cells incubated for 48 hrs by MTT assay; type: cell-based, Mesocricetus auratus
[3] = Selectivity index, ratio of CC50 for golden hamster BHK-21 cells EC50 for DENV-2 infected in BHK-21 cells; type: toxicity, cell-based; conditions: read-out: Selectivity Index
[4] = tested on: BHK-21; test: Binding affinity to MTase domain of NS5 in DENV-2 infected in BHK-21 cells by isothermal titration calorimetry assay; conditions: dengue virus type 2
[5] = tested on: dengue virus type 2; test: Antiviral activity against second round DENV-2 infected in BHK-21 cells assessed as reduction in new virion infectivity measured after 24 hrs by focus-forming assay; type: functional, organism-based
[6] = tested on: BHK-21; test: Reduction in viral structure E protein expression in DENV-2 infected golden hamster BHK-21 cells at 2.5 uM by Western blot analysis relative to control; type: functional, cell-based; conditions: dengue virus type 2
[7] = Reduction in viral structure E protein expression in DENV-2 infected golden hamster BHK-21 cells at 10 uM by Western blot analysis relative to control; type: functional, dengue virus type 2; conditions: Dengue virus
[8] = tested on: BHK-21; test: Reduction in viral structure E protein expression in second round DENV-2 infected golden hamster BHK-21 cells assessed in new virions at 0.5 to 10 uM measured after 24 hrs by Western blot analysis relative to control; type: functional, cell-based; conditions: dengue virus type 2, dose 0.5-10 µM
[9] = tested on: BHK-21; test: Reduction in viral structure E protein expression in second round DENV-2 infected golden hamster BHK-21 cells assessed in new virions at 0.5 to 10 uM measured after 24 hrs by confocal microscopy relative to control; type: functional, cell-based; conditions: dengue virus type 2, dose 0.5-10 µM
[10] = tested on: BHK-21; test: Binding affinity to RdRp domain of NS5 in DENV-2 infected in BHK-21 cells by isothermal titration calorimetry assay; conditions: dengue virus type 2

EC50 [1] [µM]	SMILES	further results
5.42	COc1ccc(N2CC3=C(CC(C)(C)CC3=O)N(c3ccccc3)C2c2ccc(Br)cc2)cc1 (centres undefined)	
> 20	CC1(C)CC(=O)C2=C(C1)N(c1ccc(Oc3ccccc3)cc1)C(c1ccc(Br)cc1)N(c1ccc(Cl)cc1)C2 (centres undefined)	
> 20	CC1(C)CC(=O)C2=C(C1)N(c1ccccc1)C(c1ccccc1)N(c1ccccc1)C2 (centres undefined)	
2.61	CC1(C)CC(=O)C2=C(C1)N(c1ccccc1)C(c1ccc(OCc3ccccc3)cc1)N(c1ccccc1)C2 (centres undefined)	
4.02	CC1(C)CC(=O)C2=C(C1)N(c1ccccc1)C(c1ccc(Br)cc1)N(c1ccc(C(F)(F)F)cc1)C2 (centres undefined)	
4.33	CC1(C)CC(=O)C2=C(C1)N(c1ccc(Cl)cc1)C(c1ccc(Br)cc1)N(c1ccc(Cl)cc1)C2 (centres undefined)	
> 20	CC1(C)CC(=O)C2=C(C1)N(c1ccccc1)C(c1ccc3ccccc3c1)N(c1ccccc1)C2 (centres undefined)	
2.6	COc1ccc(N2C3=C(CN(c4ccc(Cl)cc4)C2c2ccc(Br)cc2)C(=O)CC(C)(C)C3)cc1 (centres undefined)	CC50 at 48 h [2]: > 20 µM; selectivity ratio [3]: > 7.69
2.33	CC1(C)CC(=O)C2=C(C1)N(c1ccccc1)C(c1ccc(Br)cc1)N(c1ccc(Br)cc1)C2 (centres undefined)	
7.45	CC1(C)CC(=O)C2=C(C1)N(c1ccccc1)C(c1ccc(C#N)cc1)N(c1ccccc1)C2 (centres undefined)	
5.55	CC(C)c1ccc(N2CC3=C(CC(C)(C)CC3=O)N(c3ccccc3)C2c2ccc(Br)cc2)cc1 (centres undefined)	
2.85	CC1(C)CC(=O)C2=C(C1)N(c1ccccc1)C(c1ccc(Br)cc1)N(c1ccccc1)C2 (centres undefined)	CC50 at 48 h [2]: > 20 µM; selectivity ratio [3]: > 7.02
> 20	CC(C)C1N(c2ccccc2)CC2=C(CC(C)(C)CC2=O)N1c1ccccc1 (centres undefined)	
> 20	CC1(C)CC(=O)C2=C(C1)N(c1ccccc1)C(c1cccs1)N(c1ccccc1)C2 (centres undefined)	
> 20	CC1(C)CC(=O)C2=C(C1)N(c1ccccc1)C(c1ccc(Br)cc1)N(c1ccc(-c3ccccc3)cc1)C2 (centres undefined)	
13.5	CC1(C)CC(=O)C2=C(C1)N(c1ccc3ccccc3c1)C(c1ccc(Br)cc1)N(c1ccc(Cl)cc1)C2 (centres undefined)	
5.03	CC(C)Oc1ccc(C2N(c3ccccc3)CC3=C(CC(C)(C)CC3=O)N2c2ccccc2)cc1 (centres undefined)	
5.33	CC1(C)CC(=O)C2=C(C1)N(c1ccccc1)C(c1ccc(Br)cc1)N(c1ccc(C(C)(C)C)cc1)C2 (centres undefined)	
5.6	CC1(C)CC(=O)C2=C(C1)N(c1cccc(Cl)c1)C(c1ccc(Br)cc1)N(c1ccc(Cl)cc1)C2 (centres undefined)	
1.9	CC1(C)CC(=O)C2=C(C1)N(c1ccccc1)C(c1ccc(Br)cc1)N(c1ccc(F)cc1)C2 (centres undefined)	CC50 at 48 h [2]: 10 µM; selectivity ratio [3]: 5.3
> 20	CC1(C)CC(=O)C2=C(C1)N(c1ccc(Cc3ccccc3)cc1)C(c1ccc(Br)cc1)N(c1ccc(Cl)cc1)C2 (centres undefined)	
1.38	CC1(C)CC(=O)C2=C(C1)N(c1ccccc1)C(c1ccc(Br)cc1)N(c1ccc(Cl)cc1)C2 (centres undefined)	CC50 at 48 h [2]: 12.7 µM; selectivity ratio [3]: 9.18
> 20	CC1(C)CC(=O)C2=C(C1)N(Cc1ccccc1)C(c1ccccc1)N(Cc1ccccc1)C2 (centres undefined)	
> 20	COc1cc(C2N(c3ccccc3)CC3=C(CC(C)(C)CC3=O)N2c2ccccc2)cc(OC)c1O (centres undefined)	
1.85	CC1(C)CC(=O)C2=C(C1)N(c1ccccc1)C(c1ccc(Br)cc1)N(c1ccc(Oc3ccccc3)cc1)C2 (centres undefined)	CC50 at 48 h [2]: 10.9 µM; selectivity ratio [3]: 5.89

EC50 [1] [µM]	SMILES	further results
> 20	CC1(C)CC(=O)C2=C(C1)N(c1ccccc1)C(c1ccc(-c3ccccc3)cc1)N(c1ccccc1)C2 (centres undefined)	
2.63	CC1(C)CC(=O)C2=C(C1)N(c1ccccc1)C(c1ccc(OC(C)(C)C)cc1)N(c1ccccc1)C2 (centres undefined)	
1.84	CC1(C)CC(=O)C2=C(C1)N(c1ccccc1)C(c1ccc(Br)cc1)N(c1ccc(OC(F)(F)F)cc1)C2 (centres undefined)	
2.64	CC1(C)CC(=O)C2=C(C1)N(c1ccc(F)cc1)C(c1ccc(Br)cc1)N(c1ccc(Cl)cc1)C2 (centres undefined)	CC50 at 48 h [2]: > 20 µM; selectivity ratio [3]: > 7.58
> 20	CCCCC1N(c2ccccc2)CC2=C(CC(C)(C)CC2=O)N1c1ccccc1 (centres undefined)	
> 20	CC1(C)CC(=O)C2=C(C1)N(c1ccccc1)C(c1ccc(Br)cc1)N(c1ccccc1Cl)C2 (centres undefined)	
3.75	CC1(C)CC(=O)C2=C(C1)N(c1ccccc1)C(c1ccc([N+](=O)[O-])cc1)N(c1ccccc1)C2 (centres undefined)	
8.61	CC1(C)CC(=O)C2=C(C1)N(c1ccccc1)C(c1ccc(C(C)(C)C)cc1)N(c1ccccc1)C2 (centres undefined)	
4.73	CC1(C)CC(=O)C2=C(C1)N(c1ccccc1)C(c1ccc(Br)cc1)N(c1cccc(Cl)c1)C2 (centres undefined)	
1.31	CC1(C)CC(=O)C2=C(C1)N(c1ccccc1)C(c1cccc(Br)c1)N(c1ccccc1)C2 (centres undefined)	Activity [1]: Dose-dependent effect; CC50 at 48 h [2]: > 20 µM; selectivity ratio [3]: > 15.3; Activity [4]: inactive; Activity [5]: Active; inhibition [6]: Active; inhibition at 10 µM [7]: 100%; inhibition [8]: Active; inhibition [9]: Active; Activity [10]: inactive
> 20	CC1(C)CC(=O)C2=C(C1)N(c1ccccc1)C(c1ccc(O)cc1)N(c1ccccc1)C2 (centres undefined)	
3.88	CC1(C)CC(=O)C2=C(C1)N(c1ccccc1)C(c1ccccc1Br)N(c1ccccc1)C2 (centres undefined)	
1.32	CC1(C)CC(=O)C2=C(C1)N(c1ccccc1)C(c1cccc(C(F)(F)F)c1)N(c1ccccc1)C2 (centres undefined)	CC50 at 48 h [2]: 17.9 µM; selectivity ratio [3]: 13.5
1.77	CC1(C)CC(=O)C2=C(C1)N(c1ccccc1)C(c1ccc(Br)cc1)N(c1ccc3ccccc3c1)C2 (centres undefined)	
3.24	Cc1ccc(C2N(c3ccccc3)CC3=C(CC(C)(C)CC3=O)N2c2ccccc2)s1 (centres undefined)	
7.52	COc1ccc(C2N(c3ccccc3)CC3=C(CC(C)(C)CC3=O)N2c2ccccc2)cc1 (centres undefined)	
> 20	CC1(C)CC(=O)C2=C(C1)N(c1ccc(-c3ccccc3)cc1)C(c1ccc(Br)cc1)N(c1ccc(Cl)cc1)C2 (centres undefined)	
2.52	CC1(C)CC(=O)C2=C(C1)N(c1ccccc1)C(c1ccc(OC(F)(F)F)cc1)N(c1ccccc1)C2 (centres undefined)	
3.87	CC1(C)CC(=O)C2=C(C1)N(c1ccccc1)C(c1cccc3ccccc13)N(c1ccccc1)C2 (centres undefined)	
> 20	CC1(C)CC(=O)C2=C(C1)N(c1ccccc1)C(c1ccc(F)cc1)N(c1ccccc1)C2 (centres undefined)	
5.96	CC1(C)CC(=O)C2=C(C1)N(c1ccccc1)C(c1ccc(Cl)cc1)N(c1ccccc1)C2 (centres undefined)	
2.83	CC1(C)CC(=O)C2=C(C1)N(c1ccccc1)C(c1cccc([N+](=O)[O-])c1)N(c1ccccc1)C2 (centres undefined)	
3.6	CC(C)c1ccc(C2N(c3ccccc3)CC3=C(CC(C)(C)CC3=O)N2c2ccccc2)cc1 (centres undefined)	
3.75	CC1(C)CC(=O)C2=C(C1)N(c1ccccc1)C(c1ccc(C(F)(F)F)cc1)N(c1ccccc1)C2 (centres undefined)	
> 20	CC1(C)CC(=O)C2=C(C1)N(c1ccccc1)C(c1ccc(Br)cc1)N(Cc1ccccc1)C2 (centres undefined)	
